Measured values: ChEMBL document CHEMBL3813694, “Combined dual effect of modulation of human neutrophils' oxidative burst and inhibition of colon cancer cells proliferation by hydroxycinnamic acid derivatives” (Bioorg Med Chem, 2016)
Active and inactive are the calls of the source. No cut-off for these calls is given here.

Key:
[1] = Cytotoxicity against human neutrophils at 200 uM after 1 hr by trypan blue exclusion assay; type: cell-based; conditions: neutrophil
[2] = tested on: Neutrophil; experiment: Inhibition of phorbol myristate acetate-induced human neutrophils oxidative burst assessed as reduction in luminol oxidation preincubated for 5 mins followed by PMA addition measured after 15 mins by chemiluminescence assay; type: functional, cell-based
[3] = tested on: C2BBe1; experiment: Cytotoxicity against human C2BBe1 cells assessed as reduction in cell proliferation after 24 hrs by sulforhodamine B assay; type: functional, cell-based; conditions: C2BBe1, 24 h
[4] = tested on: C2BBe1; experiment: Cytotoxicity against human C2BBe1 cells assessed as reduction in cell proliferation after 48 hrs by sulforhodamine B assay; type: functional, cell-based; conditions: C2BBe1, 48 h
[5] = tested on: C2BBe1; experiment: Cytotoxicity against human C2BBe1 cells assessed as reduction in cell proliferation after 72 hrs by sulforhodamine B assay; type: functional, cell-based; conditions: C2BBe1, 72 h
[6] = tested on: C2BBe1; experiment: Cytotoxicity against human C2BBe1 cells assessed as reduction in cell proliferation after 96 hrs by sulforhodamine B assay; type: functional, cell-based; conditions: C2BBe1, 96 h
[7] = tested on: WiDr; experiment: Cytotoxicity against human WiDr cells assessed as reduction in cell proliferation after 24 hrs by sulforhodamine B assay; type: functional, cell-based
[8] = tested on: WiDr; experiment: Cytotoxicity against human WiDr cells assessed as reduction in cell proliferation after 48 hrs by sulforhodamine B assay; type: functional, cell-based
[9] = tested on: WiDr; experiment: Cytotoxicity against human WiDr cells assessed as reduction in cell proliferation after 72 hrs by sulforhodamine B assay; type: functional, cell-based
[10] = tested on: WiDr; experiment: Cytotoxicity against human WiDr cells assessed as reduction in cell proliferation after 96 hrs by sulforhodamine B assay; type: functional, cell-based
[11] = tested on: C2BBe1; experiment: Cytotoxicity against human C2BBe1 cells assessed as reduction in cell proliferation up to 200 uM by sulforhodamine B assay; type: functional, cell-based; conditions: TDE = time-dependent effect
[12] = tested on: Neutrophil; experiment: Inhibition of phorbol myristate acetate-induced human neutrophils oxidative burst assessed as reduction in luminol oxidation up to 200 uM preincubated for 5 mins followed by PMA addition measured after 15 mins by chemiluminescence assay; type: functional
[13] = tested on: Neutrophil; experiment: Inhibition of phorbol myristate acetate-induced superoxide radical generation in human neutrophils at 100 uM preincubated for 5 mins followed by PMA addition by lucigenin chemiluminescence assay; type: functional
[14] = tested on: C2BBe1; experiment: Cell cycle arrest in human C2BBe1 cells assessed as accumulation at G2/M phase at 50 uM after 48 hrs by propidium iodide/RNase staining based flow cytometry relative to control; type: functional
[15] = tested on: WiDr; experiment: Cell cycle arrest in human WiDr cells assessed as accumulation at S phase at 50 uM after 48 hrs by propidium iodide/RNase staining based flow cytometry relative to control; type: functional
[16] = tested on: WiDr; experiment: Cell cycle arrest in human WiDr cells assessed as accumulation at pre-G1 phase at 50 uM after 48 hrs by propidium iodide/RNase staining based flow cytometry; type: functional
[17] = tested on: WiDr; experiment: Cytotoxicity against human WiDr cells assessed as reduction in cell viability at 35 uM after 48 hrs by annexin V/propidium iodide dual staining based flow cytometry relative to control; type: functional
[18] = tested on: WiDr; experiment: Cytotoxicity against human WiDr cells assessed as reduction in cell viability at 50 uM after 48 hrs by annexin V/propidium iodide dual staining based flow cytometry relative to control; type: functional
[19] = tested on: C2BBe1; experiment: Cytotoxicity against human C2BBe1 cells assessed as reduction in cell viability at 22 uM after 48 hrs by annexin V/propidium iodide dual staining based flow cytometry relative to control; type: functional
[20] = tested on: C2BBe1; experiment: Cytotoxicity against human C2BBe1 cells assessed as reduction in cell viability at 50 uM after 48 hrs by annexin V/propidium iodide dual staining based flow cytometry relative to control; type: functional
[21] = tested on: C2BBe1; experiment: Induction of apoptosis in human C2BBe1 cells assessed as early apoptotic cells at 50 uM after 48 hrs by annexin V/propidium iodide dual staining based flow cytometry; type: functional, cell-based
[22] = tested on: WiDr; experiment: Induction of apoptosis in human WiDr cells assessed as decrease in mitochondrial membrane potential at 50 uM after 48 hrs by JC-1 staining based flow cytometry relative to control; type: functional
[23] = tested on: WiDr; experiment: Induction of superoxide anion radical production in human WiDr cells after 48 hrs by dihydroethidium probe based flow cytometry; type: functional, cell-based
[24] = tested on: C2BBe1; experiment: Induction of superoxide anion radical production in human C2BBe1 cells after 48 hrs by dihydroethidium probe based flow cytometry; type: functional, cell-based
[25] = tested on: WiDr; experiment: Induction of superoxide anion radical production in human WiDr cells at 50 uM after 48 hrs by dihydroethidium probe based flow cytometry relative to control; type: functional
[26] = tested on: WiDr; experiment: Induction of hydrogen peroxide production in human WiDr cells at 35 to 50 uM after 48 hrs by DCFH2-DA probe based flow cytometry; type: functional, cell-based
[27] = tested on: C2BBe1; experiment: Induction of glutathione production in human C2BBe1 cells at 50 uM after 48 hrs by mercury orange dye based flow cytometry relative to control; type: functional
[28] = tested on: WiDr; experiment: Induction of apoptosis in human WiDr cells assessed as early apoptotic cells at 35 to 50 uM after 48 hrs by annexin V/propidium iodide dual staining based flow cytometry; type: functional, cell-based

| Compound | IC50 [2] | Activity [1] | IC50 [3] | IC50 [4] | IC50 [5] | IC50 [6] | IC50 [7] | IC50 [8] | IC50 [9] | IC50 [10] | Activity [11] | also measured |
| --- | --- | --- | --- | --- | --- | --- | --- | --- | --- | --- | --- | --- |
| O=C(O)/C=C/c1cc(O)c(O)c(O)c1 | 19 µM | 98% | 131 µM | 87.9 µM | 58.9 µM | 39.1 µM | > 200 µM | > 200 µM | 114 µM | 136 µM | tde | – |
| CCCCCCNC(=O)/C=C/c1cc(O)c(O)c(O)c1 | 36 µM | 98% | 115 µM | 115 µM | 99.8 µM | 50.9 µM | 71.4 µM | 82.4 µM | 37.7 µM | 31.7 µM | tde | – |
| O=C(O)/C=C/c1ccc(O)c(O)c1 [CAFFEIC ACID] | – | 98% | – | – | – | – | – | – | – | – | – | inhibition (INH) [12]: 44%; inhibition at 100 µM [13]: 84% |
| COc1cc(/C=C/C(=O)O)ccc1O [FERULATE] | 200 µM | 98% | > 200 µM | > 200 µM | > 200 µM | > 200 µM | > 200 µM | > 200 µM | > 200 µM | > 200 µM | – | – |

The next lines start with results.

| IC50 [2] | Compound | Activity [1] | IC50 [3] | IC50 [4] | IC50 [5] | IC50 [6] | IC50 [7] | IC50 [8] | IC50 [9] | IC50 [10] | Activity [11] | also measured |
| --- | --- | --- | --- | --- | --- | --- | --- | --- | --- | --- | --- | --- |
| 6.6 µM | CCCCCCNC(=O)/C=C/c1ccc(O)c(O)c1 [CAFFEOYLHEXYLAMIDE] | 98% | 37.3 µM | 22 µM | 23.4 µM | 22.6 µM | 56.1 µM | 34.6 µM | 35.5 µM | 30.8 µM | – | Activity [14]: 8.8%; Activity [15]: 9.3%; Activity [16]: Active; Activity [17]: 32.8%; Activity [18]: 43.9%; Activity [19]: 11.4%; Activity [20]: 14.7%; Activity [21]: Active; fold change (FC) [22]: 1.27; Activity [23]: Dose-dependent effect; Activity [24]: Dose-dependent effect; fold change (FC) [25]: 2.63; Activity [26]: Active; fold change (FC) [27]: 1.47; Activity [28]: Active |
| 14 µM | CCCCCCNC(=O)/C=C/c1ccc(O)c(OC)c1 [FERULOYLHEXYLAMIDE] | 98% | 132 µM | 123 µM | 89.5 µM | 60.6 µM | 84.9 µM | 91 µM | 77.4 µM | 83.3 µM | – | – |
